Measurements from patent US20220041681A1 (MEDIMMUNE LIMITED, priority 2016, published 2022).
Numbered stars: 1 amine (or outer) side, 2 acyl side, 3 side chain; on linkers, the order of the positions; unused ones are H or OH. Side chains are listed from the residue outwards. Peptide text beside a SMILES is read from it. * marks the point of attachment. γGlu = O=C(O)[C@H](CCC(=O)[*:2])N[*:1]; Palmitoyl = CCCCCCCCCCCCCCCC(=O)*; Ahx = NCCCCCC(=O)O; βAla = NCCC(=O)O

What was measured:
Human GLP1R = Human GLP1R (Homo sapiens, UniProt P43220); assay: cAMP activity assay (assay 1) in assay medium; format: cell-based; details: Table 4, additional peptides, read-out: hGLP1R EC50
Chain of Human GLP1R (P43220 24-463): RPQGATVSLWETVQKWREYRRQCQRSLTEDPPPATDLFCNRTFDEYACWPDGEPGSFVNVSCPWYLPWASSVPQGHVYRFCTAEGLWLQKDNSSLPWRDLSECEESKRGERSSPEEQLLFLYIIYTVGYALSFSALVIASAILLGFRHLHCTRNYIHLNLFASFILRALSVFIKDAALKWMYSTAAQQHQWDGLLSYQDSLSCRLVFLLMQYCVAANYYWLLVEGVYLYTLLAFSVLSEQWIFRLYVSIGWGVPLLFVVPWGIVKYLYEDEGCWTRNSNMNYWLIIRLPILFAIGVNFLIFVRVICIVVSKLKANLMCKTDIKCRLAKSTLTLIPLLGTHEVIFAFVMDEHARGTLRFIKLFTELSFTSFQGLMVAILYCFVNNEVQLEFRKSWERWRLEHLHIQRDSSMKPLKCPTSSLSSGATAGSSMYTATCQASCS
Experimental: (§2) All sample dilutions were made in duplicate.
(§3) A frozen cryo-vial of cells expressing the receptor of interest was thawed rapidly in a water-bath, transferred to pre-warmed assay media and spun at 240×g for 5 minutes. Cells were re-suspended in assay media at an optimized concentration (e.g. hGCGR cells at 1×10^5 cells/ml, hGLP-1R and hGIPR cells at 0.5×10^5 cells/ml).
(§4) To this, 5 μL cell suspension was added and the plates incubated at room temperature for 30 minutes.
(§5) cAMP levels were measured using a commercially available cAMP dynamic 2 HTRF kit (Cisbio, Cat #62AM4PEJ), following the two step protocol as per manufacturer's recommendations. In brief; anti-cAMP cryptate (donor fluorophore) and cAMP-d2 (acceptor fluorophore) were made up separately by diluting each 120 in conjugate & lysis buffer provided in the kit. 5 μL anti-cAMP cryptate was added to all wells of the assay plate, and 5 μL cAMP-d2 added to all wells except non-specific binding (NSB) wells, to which conjugate and lysis buffer was added.

Human GlucR = target: T1, Human GlucR (Homo sapiens, UniProt P47871); assay: cAMP activity assay (assay 1) in assay medium; format: cell-based; details: Table 4, additional peptides, read-out: hGlucR EC50
T1 construct: expressed in transfected cells
T1 sequence (P47871 26-477): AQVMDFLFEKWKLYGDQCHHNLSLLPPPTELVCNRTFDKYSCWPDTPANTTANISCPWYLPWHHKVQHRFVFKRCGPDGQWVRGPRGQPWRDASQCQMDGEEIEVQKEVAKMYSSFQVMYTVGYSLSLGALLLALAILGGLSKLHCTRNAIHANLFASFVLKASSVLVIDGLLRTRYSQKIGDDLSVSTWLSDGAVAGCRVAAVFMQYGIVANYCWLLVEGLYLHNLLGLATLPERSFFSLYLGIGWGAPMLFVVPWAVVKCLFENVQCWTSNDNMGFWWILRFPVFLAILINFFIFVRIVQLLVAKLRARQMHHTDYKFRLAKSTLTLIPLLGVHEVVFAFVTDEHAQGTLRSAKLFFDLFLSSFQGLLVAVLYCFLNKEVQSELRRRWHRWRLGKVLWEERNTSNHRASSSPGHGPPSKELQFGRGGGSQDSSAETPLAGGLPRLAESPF
Experimental: as §2, §3, §4, §5

[1] = tested on: diet induced obesity (DIO) mouse model; assay: Diet induced obesity (DIO) mouse model, study B; format: in vivo
Experimental: (§1) The body weight of the animals was monitored daily throughout the dosing period. At day 14, blood samples for the measurement of plasma glucose and insulin from conscious mice were obtained after a 4-hour fasting period. Mice were then anaesthetized using isoflourane and terminal blood was collected from the capillary bed behind the eye. The following parameters were measured: blood chemistry measurements of triglycerides, total cholesterol, non-esterified fatty acids (NEFA), beta-hydroxybutyrate and fibroblast growth factor 21 (FGF21) (Table 16 and Table 17 below).

[2] = tested on: diet induced obesity (DIO) mouse model; assay: Diet induced obesity (DIO) mouse model, study A; format: in vivo
Text: Female C57/Bl6JHsdOla (obtained from Harlan Laboratories. UK) were started on a high fat diet of D12492 (Research Diets, NJ, USA) and a chocolate confection, delicato ball (Delicata Bakverk, Sweden) at 9-11 weeks of age, and were maintained on the diet for 16 weeks prior to arrival to the animal facility, during a three week acclimation period and during drug treatment, caloric content of the two components of the diet is shown in Table 11. The mice were divided into 9 groups (n=5-6), and treatment was started at 29 weeks of age.
as §1, with “throughout die” for “throughout the”, “using isofluorane” for “using isoflourane”, “(FGF21) (Tables 14” for “(FGF21) (Table 16”, “and 15” for “and Table 17”

[3] = 27 nmol/kg sc twice daily, day 14
[4] = 27 nmol/kg sc twice daily, day 14, 4-hour fasting

Compound `CCCCCCCCCCCCCCCC(=O)N[C@@H](CCC(=O)NCCCC[C@H](NC(=O)[C@H](CCC(=O)O)NC(=O)[C@H](CO)NC(=O)[C@H](Cc1ccc(O)cc1)NC(=O)[C@H](CC(=O)O)NC(=O)[C@H](CO)NC(=O)[C@@H](NC(=O)[C@H](Cc1ccccc1)NC(=O)[C@@H](NC(=O)CNC(=O)[C@H](CCC(N)=O)NC(=O)[C@H](CO)NC(=O)[C@@H](N)Cc1c[nH]cn1)[C@@H](C)O)[C@@H](C)O)C(=O)N[C@@H](CC(C)C)C(=O)N[C@@H](CC(=O)O)C(=O)N[C@@H](CO)C(=O)N[C@@H](CCC(=O)O)C(=O)N[C@@H](CCCNC(=N)N)C(=O)N[C@@H](C)C(=O)N[C@@H](CCCNC(=N)N)C(=O)N[C@@H](CC(=O)O)C(=O)N[C@@H](Cc1ccccc1)C(=O)N[C@H](C(=O)N[C@@H](C)C(=O)N[C@@H](Cc1c[nH]c2ccccc12)C(=O)N[C@@H](CC(C)C)C(=O)N[C@H](C(=O)N[C@@H](C)C(=O)NCC(=O)NCC(N)=O)C(C)C)C(C)C)C(=O)O` [g802] (H-HSQGTFTSDYSEK([γGlu-Palmitoyl])LDSERARDFVAWLVAGG-NH2; N-terminus assumed) has an EC50 (Human GLP1R) of 0.0364 nM.
Compound `CCCCCCCCCCCCCCCC(=O)N[C@@H](CCC(=O)NCCCC[C@H](NC(=O)[C@H](CCCCN)NC(=O)[C@H](CO)NC(=O)[C@H](Cc1ccc(O)cc1)NC(=O)[C@H](CC(=O)O)NC(=O)[C@H](CO)NC(=O)[C@@H](NC(=O)[C@H](Cc1ccccc1)NC(=O)[C@@H](NC(=O)CNC(=O)[C@H](CCC(N)=O)NC(=O)C(C)(C)NC(=O)[C@@H](N)Cc1c[nH]cn1)[C@@H](C)O)[C@@H](C)O)C(=O)N[C@@H](CC(C)C)C(=O)N[C@@H](CC(=O)O)C(=O)N[C@@H](CO)C(=O)N[C@@H](CCC(=O)O)C(=O)N[C@@H](CCCNC(=N)N)C(=O)N[C@@H](C)C(=O)N[C@@H](CCCNC(=N)N)C(=O)N[C@@H](CC(=O)O)C(=O)N[C@@H](Cc1ccccc1)C(=O)N[C@H](C(=O)N[C@@H](C)C(=O)N[C@@H](Cc1c[nH]c2ccccc12)C(=O)N[C@@H](CC(C)C)C(=O)N[C@H](C(=O)N[C@@H](C)C(=O)NCC(=O)NCC(N)=O)C(C)C)C(C)C)C(=O)O` [g87 ?] has an EC50 (Human GlucR) of 0.129 nM and an EC50 (Human GLP1R) of 0.0298 nM.
For `CCCCCCCCCCCCCCCC(=O)NCCCCCC(=O)NCCCC[C@H](NC(=O)[C@H](CO)NC(=O)[C@H](CC(=O)O)NC(=O)[C@H](CC(C)C)NC(=O)[C@H](Cc1ccc(O)cc1)NC(=O)[C@H](CCC(=O)O)NC(=O)[C@H](CO)NC(=O)[C@H](Cc1ccc(O)cc1)NC(=O)[C@H](CC(=O)O)NC(=O)[C@H](CO)NC(=O)[C@@H](NC(=O)[C@H](Cc1ccccc1)NC(=O)[C@@H](NC(=O)CNC(=O)[C@H](CCC(N)=O)NC(=O)CNC(=O)[C@@H](N)Cc1c[nH]cn1)[C@@H](C)O)[C@@H](C)O)C(=O)N[C@@H](CCCNC(=N)N)C(=O)N[C@@H](C)C(=O)N[C@@H](C)C(=O)N[C@@H](CC(=O)O)C(=O)N[C@@H](Cc1ccccc1)C(=O)N[C@H](C(=O)N[C@@H](C)C(=O)N[C@@H](Cc1c[nH]c2ccccc12)C(=O)N[C@@H](CC(C)C)C(=O)N[C@@H](CCC(=O)O)C(=O)N[C@@H](CCCNC(=N)N)C(=O)NCC(=O)NCC(N)=O)C(C)C` [g683], the EC50 (Human GlucR) was 0.372 nM.
`CCCCCCCCCCCCCCCC(=O)NCCC(=O)NCCCC[C@H](NC(=O)[C@H](CO)NC(=O)[C@H](CC(=O)O)NC(=O)[C@H](CC(C)C)NC(=O)[C@H](Cc1ccc(O)cc1)NC(=O)[C@H](CCC(=O)O)NC(=O)[C@H](CO)NC(=O)[C@H](Cc1ccc(O)cc1)NC(=O)[C@H](CC(=O)O)NC(=O)[C@H](CO)NC(=O)[C@@H](NC(=O)[C@H](Cc1ccccc1)NC(=O)[C@@H](NC(=O)CNC(=O)[C@H](CCC(=O)O)NC(=O)[C@H](CO)NC(=O)[C@@H](N)Cc1c[nH]cn1)[C@@H](C)O)[C@@H](C)O)C(=O)N[C@@H](CCCNC(=N)N)C(=O)N[C@@H](C)C(=O)N[C@@H](CCCNC(=N)N)C(=O)N[C@@H](CC(=O)O)C(=O)N[C@@H](Cc1ccccc1)C(=O)N[C@H](C(=O)N[C@@H](C)C(=O)N[C@@H](Cc1c[nH]c2ccccc12)C(=O)N[C@@H](CC(C)C)C(=O)N[C@@H](CCC(=O)O)C(=O)N[C@@H](C)C(=O)NCC(=O)NCC(N)=O)C(C)C` [g734] (H-HSEGTFTSDYSEYLDSK([βAla-Palmitoyl])RARDFVAWLEAGG-NH2; N-terminus assumed) gave an EC50 (Human GlucR) of 8280 nM.
With `CCCCCCCCCCCCCCCC(=O)N[C@@H](CCC(=O)NCCCC[C@H](NC(=O)[C@H](C)NC(=O)[C@H](C)NC(=O)[C@H](CCC(N)=O)NC(=O)CNC(=O)[C@H](CCC(=O)O)NC(=O)[C@H](CC(C)C)NC(=O)[C@H](Cc1ccc(O)cc1)NC(=O)[C@H](CO)NC(=O)[C@H](CO)NC(=O)[C@@H](NC(=O)[C@H](CC(=O)O)NC(=O)[C@H](CO)NC(=O)[C@@H](NC(=O)[C@H](Cc1ccccc1)NC(=O)[C@@H](NC(=O)CNC(=O)[C@H](CCC(=O)O)NC(=O)[C@H](C)NC(=O)[C@@H](N)Cc1cnc[nH]1)[C@@H](C)O)[C@@H](C)O)C(C)C)C(=O)N[C@@H](CCC(=O)O)C(=O)N[C@@H](Cc1ccccc1)C(=O)N[C@H](C(=O)N[C@@H](C)C(=O)N[C@@H](Cc1c[nH]c2ccccc12)C(=O)N[C@@H](CC(C)C)C(=O)N[C@H](C(=O)N[C@@H](CCCNC(=N)N)C(=O)NCC(=O)N[C@@H](CCCNC(=N)N)C(=O)NCC(=O)O)C(C)C)[C@@H](C)CC)C(=O)O` [Liraglutide, reference compound] the “BW day 14 (% change of vehicle mean)” value ([1]; 27 nmol/kg sc twice daily for 14 days) was −14%, the “FGF 21” value [1, 3] was 2990 pg/mL and the HOMA [1, 3] was 3.51. The “Hepatic TG” value [1, 3] was 18.4 g TG/100 g tissue, the “Plasma Cholesterol” value [1, 3] was 3.26 mM and the “Plasma NEFA” value [1, 3] was 0.29 mM. The “Plasma TG” value [1, 3] was 0.28 mM, the Glucose [1, 4] was 7.7 mM and the Insulin [1, 4] was 0.31 nM. For the same compound, the “BW day 14 (% change of vehicle mean)” value ([2]; 27 nmol/kg sc twice daily 14 days) was −13.3%, the BeHy ([2]; 27 nmol/kg, day 14) was 345 u mol/l and the “FGF 21” value ([2]; 27 nmol/kg, day 14) was 2481 pg/mL. The HOMA ([2]; 27 nmol/kg, day 14) was 2.8, the “Hepatic TG” value ([2]; 27 nmol/kg, day 14) was 13.1 g TB/100 g tissue and the Insulin ([2]; 27 nmol/kg, day 14) was 0.3 nM. The “Plasma Cholesterol” value ([2]; 27 nmol/kg, day 14) was 3.75 mM, the “Plasma NEFA” value ([2]; 27 nmol/kg, day 14) was 0.24 Mm and the “Plasma TG” value ([2]; 27 nmol/kg, day 14) was 0.24 mM. For the same compound, the Glucose ([2]; 27 nmol/kg, day 14, 4-hour fasting) was 8.0 mM.
`CCCCCCCCCCCCCCCC(=O)N[C@@H](CCC(=O)NCCCC[C@H](NC(=O)[C@H](CO)NC(=O)[C@H](CC(=O)O)NC(=O)[C@H](CC(C)C)NC(=O)[C@H](Cc1ccc(O)cc1)NC(=O)[C@H](CCCCN)NC(=O)[C@H](CO)NC(=O)[C@H](Cc1ccc(O)cc1)NC(=O)[C@H](CC(=O)O)NC(=O)[C@H](CO)NC(=O)[C@@H](NC(=O)[C@H](Cc1ccccc1)NC(=O)[C@@H](NC(=O)CNC(=O)[C@H](CCC(=O)O)NC(=O)[C@H](CO)NC(=O)[C@@H](N)Cc1c[nH]cn1)[C@@H](C)O)[C@@H](C)O)C(=O)N[C@@H](CCCNC(=N)N)C(=O)N[C@@H](C)C(=O)N[C@@H](CCC(=O)O)C(=O)N[C@@H](CC(=O)O)C(=O)N[C@@H](Cc1ccccc1)C(=O)N[C@H](C(=O)N[C@@H](CCC(=O)O)C(=O)N[C@@H](Cc1c[nH]c2ccccc12)C(=O)N[C@@H](CC(C)C)C(=O)N[C@H](C(=O)N[C@@H](C)C(=O)NCC(=O)NCC(N)=O)C(C)C)C(C)C)C(=O)O` [g639] (H-HSEGTFTSDYSKYLDSK([γGlu-Palmitoyl])RAEDFVEWLVAGG-NH2; N-terminus assumed) was tested, and the EC50 (Human GlucR) was 8210 nM.
`CCCCCCCCCCCCCCCC(=O)NCCCCCC(=O)NCCCC[C@H](NC(=O)[C@H](CO)NC(=O)[C@H](CC(=O)O)NC(=O)[C@H](CC(C)C)NC(=O)[C@H](Cc1ccc(O)cc1)NC(=O)[C@H](CCC(=O)O)NC(=O)[C@H](CO)NC(=O)[C@H](Cc1ccc(O)cc1)NC(=O)[C@H](CC(=O)O)NC(=O)[C@H](CO)NC(=O)[C@@H](NC(=O)[C@H](Cc1ccccc1)NC(=O)[C@@H](NC(=O)CNC(=O)[C@H](CCC(N)=O)NC(=O)CNC(=O)[C@@H](N)Cc1c[nH]cn1)[C@@H](C)O)[C@@H](C)O)C(=O)N[C@@H](CCCNC(=N)N)C(=O)N[C@@H](C)C(=O)N[C@@H](CCCNC(=N)N)C(=O)N[C@@H](CC(=O)O)C(=O)N[C@@H](Cc1ccccc1)C(=O)N[C@H](C(=O)N[C@@H](C)C(=O)N[C@@H](Cc1c[nH]c2ccccc12)C(=O)N[C@@H](CC(C)C)C(=O)N[C@@H](CCC(=O)O)C(=O)N[C@@H](CCCNC(=N)N)C(=O)NCC(=O)NCC(N)=O)C(C)C` [g684] (H-HGQGTFTSDYSEYLDSK([Ahx-Palmitoyl])RARDFVAWLERGG-NH2; N-terminus assumed) was tested, and the EC50 (Human GLP1R) was 0.0161 nM.
Work on `CCCCCCCCCCCCCCCC(=O)N[C@@H](CCC(=O)NCCCC[C@H](NC(=O)[C@H](CO)NC(=O)[C@H](CC(=O)O)NC(=O)[C@H](CC(C)C)NC(=O)[C@H](Cc1ccc(O)cc1)NC(=O)[C@H](CCC(=O)O)NC(=O)[C@H](CO)NC(=O)[C@H](Cc1ccc(O)cc1)NC(=O)[C@H](CC(=O)O)NC(=O)[C@H](CO)NC(=O)[C@@H](NC(=O)[C@H](Cc1ccccc1)NC(=O)[C@@H](NC(=O)CNC(=O)[C@H](CCC(N)=O)NC(=O)CNC(=O)[C@@H](N)Cc1c[nH]cn1)[C@@H](C)O)[C@@H](C)O)C(=O)N[C@@H](CCCNC(=N)N)C(=O)N[C@@H](C)C(=O)N[C@@H](CCCNC(=N)N)C(=O)N[C@@H](CC(=O)O)C(=O)N[C@@H](Cc1ccccc1)C(=O)N[C@H](C(=O)N[C@@H](C)C(=O)N[C@@H](Cc1c[nH]c2ccccc12)C(=O)N[C@@H](CC(C)C)C(=O)N[C@H](C(=O)N[C@@H](C)C(=O)NCC(=O)NCC(N)=O)C(C)C)C(C)C)C(=O)O` [g735] (H-HGQGTFTSDYSEYLDSK([γGlu-Palmitoyl])RARDFVAWLVAGG-NH2; N-terminus assumed) yielded an EC50 (Human GLP1R) of 0.161 nM.
